Positions of bridges follow the written chain, without caps; N, C: chain ends. Non-standard residues stand in square brackets, D forms with d. Residues, ends and D or L forms follow the SMILES beside them. *: point of attachment. Ala(4-thiazolyl) = N[C@@H](Cc1cscn1)C(=O)O; Tyr(3-F) = N[C@@H](Cc1ccc(O)c(F)c1)C(=O)O; NEtPhe = CCN[C@@H](Cc1ccccc1)C(=O)O; NMeF = CN[C@@H](Cc1ccccc1)C(=O)O; NMeI = CC[C@H](C)[C@H](NC)C(=O)O; AllylGly = C=CC[C@H](N)C(=O)O; NMeL = CN[C@@H](CC(C)C)C(=O)O; Ala(CN) = N#CC[C@H](N)C(=O)O; NMeV = CN[C@H](C(=O)O)C(C)C; NMeA = CN[C@@H](C)C(=O)O; Piperidide = C1CCN(*)CC1; dNMeA = CN[C@H](C)C(=O)O; Sar = CNCC(=O)O

One data set in a line: Metabolic stability in human hepatic microsome. Conditions: human, microsomes, pH 7.4, CL NADPH(+). The format is in vitro ADME.
For `CCN1C(=O)[C@H](Cc2ccccc2)N(C)C(=O)CN(C)C(=O)[C@H]([C@@H](C)O)NC(=O)[C@H](C)N(C)C(=O)C[C@@H](C(=O)N2CCCCC2)NC(=O)[C@H](C(C)C)N(C)C(=O)[C@H](C)NC(=O)[C@H](CC(C)C)N(C)C(=O)[C@@H]2CCCN2C(=O)[C@H](CC(C)C)N(C)C(=O)[C@@H]1Cc1ccccc1` [DP-632] ([NMeA]T[Sar][NMeF][NEtPhe][NMeL]P[NMeL]A[NMeV]D-Piperidide; lactam N-11), the microsomal CLint at 1 uM stood at 41 µL/min/mg.

Staying with this data set, now noted: microsomes, pH 7.4; human hepatic microsome, NADPH(+); read-out: CL NADPH(+).
For the compound `CC(C)C[C@@H]1NC(=O)[C@H](CC(C)C)N(C)C(=O)[C@H](CC(C)C)N(C)C(=O)[C@H](Cc2ccccc2)NC(=O)[C@H](Cc2ccccc2)N(C)C(=O)[C@H](CCC(N)=O)NC(=O)[C@H](CC(C)C)N(C)C(=O)[C@H](Cc2ccccc2)NC(=O)[C@H](C)NC(=O)C[C@@H](C(=O)N(C)[C@@H](Cc2ccccc2)C(=O)N[C@@H](C)C(=O)N2CCCCC2)NC1=O` [DP-601] (AF[NMeL]Q[NMeF]F[NMeL][NMeL]LD[NMeF]A-Piperidide; lactam N-10), the microsomal CLint at 1 uM was 21 µL/min/mg.
Still for that read-out and setting: the result for `CC(C)C[C@@H]1NC(=O)[C@H](CC(C)C)N(C)C(=O)[C@H](CC(C)C)N(C)C(=O)[C@H](CCC(N)=O)NC(=O)[C@H](Cc2ccccc2)N(C)C(=O)[C@H]([C@@H](C)O)NC(=O)[C@H](CC(C)C)N(C)C(=O)[C@H](Cc2ccccc2)NC(=O)[C@H](C)NC(=O)C[C@@H](C(=O)N(C)[C@@H](Cc2ccccc2)C(=O)N[C@@H](C)C(=O)N2CCCCC2)NC1=O` [DP-602] (AF[NMeL]T[NMeF]Q[NMeL][NMeL]LD[NMeF]A-Piperidide; lactam N-10) reads 26 µL/min/mg.
Same read-out and setting: the result for `CC(C)C[C@@H]1NC(=O)[C@H](CC(C)C)N(C)C(=O)[C@H](CC(C)C)N(C)C(=O)[C@H](C)NC(=O)[C@H](Cc2ccccc2)N(C)C(=O)[C@H](CCC(=O)N(C)C)NC(=O)[C@H](CC(C)C)N(C)C(=O)[C@H](Cc2ccccc2)NC(=O)[C@H](C)NC(=O)C[C@@H](C(=O)N(C)[C@@H](Cc2ccccc2)C(=O)N[C@@H](C)C(=O)N2CCCCC2)NC1=O` [DP-603] (AF[NMeL]E(NMe2)[NMeF]A[NMeL][NMeL]LD[NMeF]A-Piperidide; lactam N-10) reads 17 µL/min/mg.
Same read-out and setting: the result for `CC(C)C[C@@H]1NC(=O)[C@H](CC(C)C)N(C)C(=O)[C@H](CC(C)C)N(C)C(=O)CNC(=O)[C@H](Cc2ccccc2)N(C)C(=O)[C@H]([C@@H](C)O)NC(=O)[C@H](CC(C)C)N(C)C(=O)[C@H](Cc2ccc(O)c(F)c2)NC(=O)[C@H](C)NC(=O)C[C@@H](C(=O)N(C)[C@@H](Cc2ccccc2)C(=O)N[C@@H](C)C(=O)N2CCCCC2)NC1=O` [DP-605] (A[Tyr(3-F)][NMeL]T[NMeF]G[NMeL][NMeL]LD[NMeF]A-Piperidide; lactam N-10) reads 30 µL/min/mg.
Turning to `CC(C)C[C@@H]1NC(=O)[C@H](CC(C)C)N(C)C(=O)[C@H](C)N(C)C(=O)[C@H](Cc2ccc(O)c(F)c2)NC(=O)[C@H](Cc2ccccc2)N(C)C(=O)[C@H]([C@@H](C)O)NC(=O)[C@H](CC(C)C)N(C)C(=O)[C@H](Cc2ccccc2)NC(=O)[C@H](C)NC(=O)C[C@@H](C(=O)N(C)[C@@H](Cc2ccccc2)C(=O)N[C@@H](C)C(=O)N2CCCCC2)NC1=O` [DP-606] (AF[NMeL]T[NMeF][Tyr(3-F)][NMeA][NMeL]LD[NMeF]A-Piperidide; lactam N-10), the microsomal CLint at 1 uM was determined as 70 µL/min/mg.
On the same count and under the same terms, to `CC(C)C[C@H]1C(=O)N(C)[C@@H](CC(C)C)C(=O)N[C@@H](Cc2c[nH]c3ccccc23)C(=O)N[C@H](C(=O)N(C)[C@@H](Cc2ccccc2)C(=O)N[C@@H](C)C(=O)N2CCCCC2)CC(=O)N[C@@H](C)C(=O)N[C@@H](Cc2ccccc2)C(=O)N(C)[C@@H](CC(C)C)C(=O)N[C@@H]([C@@H](C)O)C(=O)N(C)[C@@H](Cc2ccccc2)C(=O)NCC(=O)N1C` [DP-608] (AF[NMeL]T[NMeF]G[NMeL][NMeL]WD[NMeF]A-Piperidide; lactam N-10) belongs 13 µL/min/mg; to `CC(C)C[C@@H]1NC(=O)[C@H](CC(C)C)N(C)C(=O)[C@H](CC(C)C)N(C)C(=O)CNC(=O)[C@H](Cc2ccccc2)N(C)C(=O)[C@H](Cc2cscn2)NC(=O)[C@H](CC(C)C)N(C)C(=O)[C@H](Cc2ccccc2)NC(=O)[C@H](C)NC(=O)C[C@@H](C(=O)N(C)[C@@H](Cc2ccccc2)C(=O)N[C@@H](C)C(=O)N2CCCCC2)NC1=O` [DP-609] (AF[NMeL][Ala(4-thiazolyl)][NMeF]G[NMeL][NMeL]LD[NMeF]A-Piperidide; lactam N-10), 16 µL/min/mg; to `C=CC[C@@H]1NC(=O)[C@H](CC(C)C)N(C)C(=O)[C@H](CC(C)C)N(C)C(=O)CNC(=O)[C@H](Cc2ccccc2)N(C)C(=O)[C@H]([C@@H](C)O)NC(=O)[C@H](CC(C)C)N(C)C(=O)[C@H](Cc2ccccc2)NC(=O)[C@H](C)NC(=O)C[C@@H](C(=O)N(C)[C@@H](Cc2ccccc2)C(=O)N[C@@H](C)C(=O)N2CCCCC2)NC1=O` [DP-611] (AF[NMeL]T[NMeF]G[NMeL][NMeL][AllylGly]D[NMeF]A-Piperidide; lactam N-10), 20 µL/min/mg.
Same read-out and setting: the result for `C=CC[C@@H]1NC(=O)[C@H](Cc2ccccc2)N(C)C(=O)[C@H]([C@@H](C)O)NC(=O)[C@H](CC(C)C)N(C)C(=O)[C@H](Cc2ccccc2)NC(=O)[C@H](C)NC(=O)C[C@@H](C(=O)N(C)[C@@H](Cc2ccccc2)C(=O)N[C@@H](C)C(=O)N2CCCCC2)NC(=O)[C@H](CC(C)C)NC(=O)[C@H](CC(C)C)N(C)C(=O)[C@H](C)N(C)C1=O` [DP-612] (AF[NMeL]T[NMeF][AllylGly][NMeA][NMeL]LD[NMeF]A-Piperidide; lactam N-10) reads 155 µL/min/mg.
On the same count and under the same terms, to `CC(C)C[C@H]1C(=O)N(C)[C@@H](CC(C)C)C(=O)N[C@@H](C)C(=O)N[C@H](C(=O)N(C)[C@@H](Cc2ccccc2)C(=O)N[C@@H](C)C(=O)N2CCCCC2)CC(=O)N[C@@H](C)C(=O)N[C@@H](Cc2ccccc2)C(=O)N(C)[C@@H](CC(C)C)C(=O)N[C@@H](CC#N)C(=O)N(C)[C@@H](Cc2ccccc2)C(=O)N[C@@H](C)C(=O)N1C` [DP-613] (AF[NMeL][Ala(CN)][NMeF]A[NMeL][NMeL]AD[NMeF]A-Piperidide; lactam N-10) belongs 37 µL/min/mg; to `CC(C)C[C@@H]1NC(=O)C[C@@H](C(=O)N2CCCCC2)NC(=O)[C@H]([C@@H](C)O)NC(=O)[C@H](C(C)C)N(C)C(=O)CN(C)C(=O)[C@H](CC(C)C)N(C)C(=O)[C@H](Cc2ccccc2)NC(=O)[C@H](Cc2ccccc2)N(C)C(=O)[C@@H](C(C)C)NC(=O)[C@H](CC(C)C)N(C)C(=O)[C@H](C)N(C)C1=O` [DP-615] (L[NMeA][NMeL][dV][NMeF]F[NMeL][Sar][NMeV]TD-Piperidide; lactam N-11), 42 µL/min/mg; to `CC(C)C[C@@H]1NC(=O)[C@H](CC(C)C)N(C)C(=O)[C@H](C)N(C)C(=O)[C@H](Cc2ccccc2)NC(=O)C[C@@H](C(=O)N2CCCCC2)NC(=O)[C@H]([C@@H](C)O)NC(=O)[C@H](C(C)C)N(C)C(=O)CN(C)C(=O)[C@H](CC(C)C)N(C)C(=O)[C@@H](C(C)C)NC(=O)[C@H](Cc2ccccc2)N(C)C1=O` [DP-616] (F[NMeA][NMeL]L[NMeF][dV][NMeL][Sar][NMeV]TD-Piperidide; lactam N-11), 69 µL/min/mg.
In the case of `CC(C)C[C@@H]1NC(=O)[C@H](CC(C)C)N(C)C(=O)[C@H](C)N(C)C(=O)[C@@H](C(C)C)NC(=O)C[C@@H](C(=O)N2CCCCC2)NC(=O)[C@H]([C@@H](C)O)NC(=O)[C@H](C)N(C)C(=O)CN(C)C(=O)[C@H](CC(C)C)N(C)C(=O)[C@H](Cc2c[nH]c3ccccc23)NC(=O)[C@H](Cc2ccccc2)N(C)C1=O` [DP-622] ([dV][NMeA][NMeL]L[NMeF]W[NMeL][Sar][NMeA]TD-Piperidide; lactam N-11), the microsomal CLint at 1 uM stood at 36 µL/min/mg.
On the same count and under the same terms, to `CC(C)C[C@H]1C(=O)N(C)CC(=O)N(C)[C@@H](C)C(=O)N[C@@H]([C@@H](C)O)C(=O)N[C@H](C(=O)N2CCCCC2)CC(=O)N[C@H](C(C)C)C(=O)N(C)[C@@H](C)C(=O)N(C)[C@@H](CC(C)C)C(=O)N[C@@H](Cc2c[nH]c3ccccc23)C(=O)N(C)[C@@H](Cc2ccccc2)C(=O)N[C@@H](Cc2ccccc2)C(=O)N1C` [DP-623] ([dV][NMeA][NMeL]W[NMeF]F[NMeL][Sar][NMeA]TD-Piperidide; lactam N-11) belongs 16 µL/min/mg; to `C=CC[C@@H]1NC(=O)[C@H](CC(C)C)N(C)C(=O)[C@H](C)N(C)C(=O)[C@@H](C(C)C)NC(=O)C[C@@H](C(=O)N2CCCCC2)NC(=O)[C@H]([C@@H](C)O)NC(=O)[C@H](CC(C)C)N(C)C(=O)[C@H](C)N(C)C(=O)[C@H](CC(C)C)N(C)C(=O)[C@H](Cc2ccccc2)NC(=O)[C@H](Cc2ccccc2)N(C)C1=O` [DP-628] ([dV][NMeA][NMeL][AllylGly][NMeF]F[NMeL][NMeA][NMeL]TD-Piperidide; lactam N-11), 36 µL/min/mg; to `CC(C)C[C@H]1C(=O)N(C)CC(=O)N(C)[C@@H](C)C(=O)N[C@@H]([C@@H](C)O)C(=O)N[C@H](C(=O)N2CCCCC2)CC(=O)N[C@H](C(C)C)C(=O)N(C)[C@@H](C)C(=O)N(C)[C@@H](CC(C)C)C(=O)N[C@@H](CC#N)C(=O)N(C)[C@@H](Cc2ccccc2)C(=O)N[C@@H](Cc2ccccc2)C(=O)N1C` [DP-629] ([dV][NMeA][NMeL][Ala(CN)][NMeF]F[NMeL][Sar][NMeA]TD-Piperidide; lactam N-11), 16 µL/min/mg.
Still for that read-out and setting: to `CC(C)C[C@@H]1NC(=O)[C@H](CC(C)C)N(C)C(=O)[C@H](C)N(C)C(=O)[C@@H](C(C)C)NC(=O)C[C@@H](C(=O)N2CCCCC2)NC(=O)[C@H]([C@@H](C)O)NC(=O)[C@H](Cc2ccccc2)N(C)C(=O)[C@H](C)N(C)C(=O)[C@H](CC(C)C)N(C)C(=O)[C@H](CC#N)NC(=O)[C@H](Cc2ccccc2)N(C)C1=O` [DP-630] ([dV][NMeA][NMeL]L[NMeF][Ala(CN)][NMeL][NMeA][NMeF]TD-Piperidide; lactam N-11) belongs 34 µL/min/mg.
Same read-out and setting: the result for `CC[C@H](C)[C@H]1C(=O)N[C@@H]([C@@H](C)O)C(=O)N(C)CC(=O)N(C)[C@@H](CC(C)C)C(=O)N[C@H](C(=O)N2CCCCC2)CC(=O)N(C)[C@H](C)C(=O)N[C@@H](CC(C)C)C(=O)N(C)[C@@H](CC(C)C)C(=O)N(CC)[C@@H](Cc2ccccc2)C(=O)N[C@@H](C)C(=O)N(C)[C@@H](Cc2ccccc2)C(=O)N1C` [DP-633] ([dNMeA]L[NMeL][NEtPhe]A[NMeF][NMeI]T[Sar][NMeL]D-Piperidide; lactam N-11) reads 98 µL/min/mg.
